Test results as given in US20260199327A1, “PHARMACEUTICAL COMBINATION AND PHARMACEUTICAL COMPOSITION FOR TREATING CANCER” (CSPC ZHONGQI PHARMACEUTICAL TECHNOLOGY (SHIJIAZHUANG) CO., …, priority 2022, published 2026).
Counter-ions that a name gives are not always drawn. Like-named read-outs stand apart in the source and are kept apart here. Marks after values point to notes of the source that are not given here.

Tests used:
[1] = tested on: Hep3B (human hepatocarcinoma cell line) xenograft; settings: for Number of Animals (Survived/Total): NU/NU mice, gavage qd 14 days, palbociclib 50 mg/kg; for growth of tumor (tumor weight) versus vehicle, in words / growth of xenograft tumor (tumor volume) versus vehicle, in words: at the test dose; for TV (mm^3) d14: d14, Mean ± SD; for TV (mm^3) d14 / Tumor Weight: n = 7; for Tumor Weight / Tumor Weight Inhibition Rate (%): end of test; for Tumor Weight: Mean ± SD
Excerpt: 42 NU/NU mouse, female, 42-48 days old, weighing 22-26 g.
Hep3B cells were resuscitated and passaged in vitro to the desired number of cells. The cells were counted under a microscope, and diluted with serum-free medium and matrix gel (1:1) to adjust the number of tumor cells to approximately 5×10^7 cells/mL. The cell suspension was placed in an ice bath.
Hep3B cell suspension was withdrawn with a sterile syringe for inoculation into subcutaneous tissue in the axilla of the forelimb of NU/NU mice, with a volume of 0.1 mL/per mice, containing approximately 5.0×10^6 tumor cells, to prepare NU/NU mice Hep3B xenogratf model.
In the vehicle group, the solvents were administered at the same frequency and volume for 14 consecutive days.
4.3 Observation Criteria and Evaluation Criteria • (1) General state observation: all animals were observed once a day during the test period and the abnormalities in various parts of the body and the behavior change situations were recorded. • (2) Body weight: all animals were weighed once before testing and the appropriate body weight of animals were selected for testing. Animals were weighed once a day at a fixed time after initiation of administration for weight monitoring, and body weight statistics were consistent with tumor volume statistics. • (3) Death and moribund: time of death was recorded for dead animals, moribund animals were observed more frequently, and time of death was determined. • (4) Tumor Evaluation
After animal grouping, tumor length and short diameters were measured twice per week. • (1) Tumor volume: V=½×a×b^2 • (2) Relative tumor volume:
[formula] • (3) Relative tumor volume proliferation rate:
[formula] • (4) Tumor growth inhibition rate:
[formula] • Note: V: Tumor volume • a: tumor length; b: tumor width; RTV: relative tumor volume; TVnd: tumor volume on day n; TV0d: tumor volume on day 0; RTVxnd: mean relative tumor volume on day n; TVXn: mean tumor volume on day n in the administrated group; TVX0: mean tumor volume on day 0 in the administrated group; TVMn: mean tumor volume on day n in the solvent (model) group; TVM0: mean tumor volume on day 0 in the solvent (model) group. • (5) Tumor weight
At the end of the test, the animals were sacrificed by cervical dislocation, and a tumor was stripped and weighed.
Data were processed using SPSS 19.0 statistical software. Repeated Measure process analyzed tumor volume changes between groups with multiple measurements over time. Multivariate process compared differences in tumor volume between groups at each measurement. Difference in tumor weight between groups was analyzed by LSD method of One-way ANOVA.

[2] = tested on: Hep3B (human hepatocarcinoma cell line) xenograft; settings: for growth of xenograft tumor (tumor volume) versus vehicle, in words / tumor growth (tumor weight) versus vehicle, in words: at the test dose; for TV(mm3) d16: d16, Mean ± SD; for TV(mm3) d16 / Tumor Weight: n = 6; for TV(mm3) d16 / T/C d16 (%) (relative tumor volume proliferation rate) / TGI d16 (%) (tumor growth inhibition rate) / Tumor Weight / Tumor Weight Inhibition Rate (%): palbociclib 50 mg/kg qd; for Tumor Weight / Tumor Weight Inhibition Rate (%): end of test; for Tumor Weight: Mean ± SD
Description: 36 BALB/c Nude mice, female, 18-20 g in body weight.
Compounds of formula (B), sorafenib tosylate, palbociclib.
Sorafenib tosylate/palbociclib: a solution of castor oil, anhydrous ethanol and ultrapure water in a volume ratio of 1:1:6.
In the solvent group, the solvents were administered at the same frequency and volume for 16 consecutive days.
4.3 Observation Criteria and Evaluation Criteria: Same as Example 2

[3] = compound of formula (B) 5 mg/kg, lenvatinib mesylate 8 mg/kg
[4] = compound of formula (B) 5 mg/kg, lenvatinib mesylate 8 mg/kg, palbociclib 50 mg/kg qd
[5] = d14, compound of formula (B) 5 mg/kg, lenvatinib mesylate 8 mg/kg, palbociclib 50 mg/kg qd
[6] = BALB/c Nude mice, gavage qd 16 days, compound of formula (B) 5 mg/kg, sorafenib tosylate 8 mg/kg, palbociclib 50 mg/kg
[7] = compound of formula (B) 5 mg/kg, sorafenib tosylate 8 mg/kg
[8] = compound of formula (B) 5 mg/kg, sorafenib tosylate 8 mg/kg, listed as palbociclib
[9] = compound of formula (B) 5 mg/kg, sorafenib tosylate 8 mg/kg, listed as sorafenib tosylate

Structure (SMILES) | Number of Animals (Survived/Total) [1, 3] | growth of tumor (tumor weight) versus vehicle, in words [1] | growth of xenograft tumor (tumor volume) versus vehicle, in words [1] | TV (mm^3) d14 [1, 4] | TGI d14 (%) (tumor growth inhibition rate) [1, 5] | Tumor Weight [1, 4] [g] | Tumor Weight Inhibition Rate (%) [1, 4] [%] | Change Rate in Weight (%) [2, 6] [%] | growth of xenograft tumor (tumor volume) versus vehicle, in words [2] | tumor growth (tumor weight) versus vehicle, in words [2] | TV(mm3) d16 [2, 7] [mm3] | T/C d16 (%) (relative tumor volume proliferation rate) [2, 7] | TGI d16 (%) (tumor growth inhibition rate) [2, 7] | Tumor Weight [2, 7] [g] | Tumor Weight Inhibition Rate (%) [2, 7] [%] | other results
COc1cc2nccc(Oc3ccc(NC(=O)NC4CC4)c(Cl)c3)c2cc1C(N)=O [Lenvatinib Mesylate, 4-[3-chloro-4-(N′-cyclopropylureido)phenoxy]-7-methoxyquinoline-6-carboxamide mesylate] | 7/7 | significantly inhibited the growth of the xenograft tumor | significantly inhibited the growth of the xenograft tumor | 533.1 ± 212.6** mm^3 | 57.4 | 0.5600 ± 0.1923 | 58.0 |  |  |  |  |  |  |  |  | 
CC(=O)c1c(C)c2cnc(Nc3ccc(N4CCNCC4)cn3)nc2n(C2CCCC2)c1=O [Palbociclib, 6-acetyl-8-cyclopentyl-5-methyl-2-{[5-(piperazin-1-yl)pyridin-2-yl]amino}pyrido[2,3-d]pyrimidin-7 (8H)-one] | 7/7 | did not inhibit the growth of tumor | failed to inhibit the growth of xenograft tumor | 948.8 ± 361.2 mm^3 | 11.0 | 1.3047 ± 0.4823 | 2.1 | −24.7 | failed to inhibit the growth of xenograft tumor | failed to inhibit tumor growth | 711.6 ± 313.8 | 91.3 | 31.4 | 0.89 ± 0.30 | 19.1 | T/C d14 (%) (relative tumor volume proliferation rate) [1, 5]: 95.8%; Number of Animals (Survived/Total) [2, 6]: 6/6; T/C d16 (%) (relative tumor volume proliferation rate) [2, 8]: 75.1%; TGI d16 (%) (tumor growth inhibition rate) [2, 8]: 44.5%; Tumor Weight Inhibition Rate (%) [2, 8]: 46.4%
CNC(=O)c1cc(Oc2ccc(NC(=O)Nc3ccc(Cl)c(C(F)(F)F)c3)cc2)ccn1.Cc1ccc(S(=O)(=O)O)cc1 [Sorafenib Tosylate, 4-{4-[3-(4-chloro-3-trifluoromethyl-phenyl)-acylurea]-phenoxy}-pyridine-2-carboxylic acid methylamide-4-toluenesulfonate] |  |  |  |  |  |  |  | −17.5 | failed to inhibit the growth of xenograft tumor | failed to inhibit tumor growth | 717.2 ± 222.7 | 84.5 | 30.9 | 0.79 ± 0.23 | 27.8 | T/C d16 (%) (relative tumor volume proliferation rate) [2, 9]: 91.3%; TGI d16 (%) (tumor growth inhibition rate) [2, 9]: 31.4%; Tumor Weight Inhibition Rate (%) [2, 9]: 19.1%
